Patent publication US20150291598A1 (NOVARTIS AG, priority 2012, published 2015)

The molecules below were run on P. falciparum (NF54 or 3D7 strain) (assay: Assay for P. falciparum proliferation in infected human blood cells (SYBR Green)). Conditions: NF54 or 3D7 infected human erythrocytes, 72 hours; read-out: EC50 (nM), inhibitory efficacy in delaying P. falciparum proliferation in infected human blood cells.
Assay type: cell-based, Plasmodium falciparum
How it was run: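 NF54 or 3D7 parasites in O+ human erythrocytes at 2.5% hematocrit and 0.3% parasitemia final, exposed to compounds 72 h at 37 °C under 93% N2/4% CO2/3% O2.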

Row | Molecule | EC50
1 | 4-{6-[N-methyl(4-cyanobenzene)amido]imidazo[1,2-a]pyrazin-3-yl}benzamide [Compound 495] | 405 nM

Same assay, conditions: Plasmodium falciparum, Erythrocyte, 72 h, NF54 or 3D7 infected human erythrocytes, 72 hours; read-out: EC50 (nM), inhibitory efficacy in delaying P. falciparum proliferation in infected human blood cells

Row | Molecule | EC50
2 | CC1(C)CCc2cc(F)ccc2N1C(=O)c1cn2c(-c3ccc(C(F)(F)F)cc3)cnc2cn1 [Compound 230, 6-fluoro-2,2-dimethyl-1-({3-[4-(trifluoromethyl)phenyl]imidazo[1,2-a]pyrazin-6-yl}carbonyl)-1,2,3,4-tetrahydroquinoline] | 21 nM
3 | CN(Cc1cn2c(-c3ccc(OC(F)F)cc3)cnc2cn1)c1ccc(Cl)cc1 [Compound 64, 4-chloro-N-({3-[4-(difluoromethoxy)phenyl]imidazo[1,2-a]pyrazin-6-yl}methyl)-N-methylaniline] | 116 nM
4 | CN(C(=O)c1cn2c(-c3ccc(C(F)(F)F)cc3)cnc2cn1)c1ccc(F)cc1F [Compound 23, N-(2,4-difluorophenyl)-N-methyl-3-[4-(trifluoromethyl)phenyl]imidazo[1,2-a]pyrazine-6-carboxamide] | 99 nM
5 | CN(C(=O)c1cn2c(-c3ccc4[nH]ncc4c3)cnc2cn1)c1ccc(Cl)nc1 [Compound 349, N-(6-chloropyridin-3-yl)-3-(1H-indazol-5-yl)-N-methylimidazo[1,2-a]pyrazine-6-carboxamide] | 4680 nM
6 | CN(C(=O)c1cn2c(-c3ccc(F)cc3)cnc2cn1)c1ccc(Cl)nc1 [Compound 422, N-(6-chloropyridin-3-yl)-3-(4-fluorophenyl)-N-methylimidazo[1,2-a]pyrazine-6-carboxamide] | > 10000 nM
7 | CN(C(=O)c1cn2c(-c3ccc(-c4nnc(N)o4)cc3)cnc2cn1)c1ccc(F)cc1 [Compound 227, 3-[4-(5-amino-1,3,4-oxadiazol-2-yl)phenyl]-N-(4-fluorophenyl)-N-methylimidazo[1,2-a]pyrazine-6-carboxamide] | 40 nM
8 | CCOC(=O)c1cnc2cnc(C(=O)N(C)c3ccc(Cl)nc3)cn12 [Compound 253, ethyl 6-[(6-chloropyridin-3-yl)(methyl)carbamoyl]imidazo[1,2-a]pyrazine-3-carboxylate] | 2460 nM
9 | CN(C(=O)c1cn2c(-c3ccc(C(N)=O)cc3)cnc2cn1)c1ccc(Cl)nc1 [Compound 161, 3-(4-carbamoylphenyl)-N-(6-chloropyridin-3-yl)-N-methylimidazo[1,2-a]pyrazine-6-carboxamide] | 1470 nM
10 | CN(C(=O)c1cn2c(-c3ccc(C4CCCN4)cc3)cnc2cn1)c1ccc(C#N)cc1 (stereo not shown) [Compound 193, N-(4-cyanophenyl)-N-methyl-3-[4-(pyrrolidin-2-yl)phenyl]imidazo[1,2-a]pyrazine-6-carboxamide] | 8590 nM
11 | C=Cc1cnc2cnc(C(=O)N(C)c3ccc(Cl)nc3)cn12 [Compound 381, N-(6-chloropyridin-3-yl)-3-ethenyl-N-methylimidazo[1,2-a]pyrazine-6-carboxamide] | 5110 nM
12 | CN(C(=O)c1cn2c(-c3ccc(C(F)(F)F)cc3)cnc2cn1)c1ccc(Br)cc1 [Compound 215, N-(4-bromophenyl)-N-methyl-3-[4-(trifluoromethyl)phenyl]imidazo[1,2-a]pyrazine-6-carboxamide] | 86 nM
13 | CN(C(=O)c1cn2c(-c3ccc(N4CCCCC4)cc3)cnc2cn1)c1ccc(Cl)nc1 [Compound 216, N-(6-chloropyridin-3-yl)-N-methyl-3-[4-(piperidin-1-yl)phenyl]imidazo[1,2-a]pyrazine-6-carboxamide] | 5710 nM
14 | COc1cc(F)ccc1N(C)C(=O)c1cn2c(-c3ccc(C(F)(F)F)cc3)cnc2cn1 [Compound 430, N-(4-fluoro-2-methoxyphenyl)-N-methyl-3-[4(trifluoromethyl)phenyl]imidazo[1,2-a]pyrazine] | 17 nM
15 | N#Cc1ccc(N(CCN)C(=O)c2cn3c(-c4ccc(C(F)(F)F)cc4)cnc3cn2)cc1 [Compound 386, N-(2-aminoethyl)-N-(4-cyanophenyl)-3-[4-(trifluoromethyl)phenyl]imidazo[1,2-a]pyrazine-6-carboxamide] | > 10000 nM
16 | NC(=O)c1ccc(NC(=O)c2cn3c(-c4ccc(C(F)(F)F)cc4)cnc3cn2)nc1 [Compound 371, 2-C-3-[4-(trifluoromethyl)phenyl]imidazo[1,2-a]pyrazine-6-pyridine-2,5-dicarboxamide] | > 10000 nM
17 | CN(C(=O)c1cn2c(-c3ccc(C(F)(F)F)cc3)cnc2cn1)c1ccc(S(C)(=O)=O)cc1 [Compound 501, N-(4-methanesulfonylphenyl)-N-methyl-3-[4-(trifluoromethyl)phenyl]imidazo[1,2-a]pyrazine-6-carboxamide] | 1450 nM
18 | CCCOc1ccc(-c2cnc3cnc(C(=O)N(C)c4ccc(C#N)cc4)cn23)cn1 [Compound 170, N-(4-cyanophenyl)-N-methyl-3-(6-propoxypyridin-3-yl)imidazo[1,2-a]pyrazine-6-carboxamide] | 4070 nM
19 | CN(Cc1cccnc1)C(=O)c1cn2c(-c3ccc(C(F)(F)F)cc3)cnc2cn1 [Compound 194, N-methyl-N-(pyridin-3-ylmethyl)-3-[4-(trifluoromethyl)phenyl]imidazo[1,2-a]pyrazine-6-carboxamide] | 6950 nM

Row | Molecule | EC50
20 | Cc1nnc(-c2ccc(-c3cnc4cnc(C(=O)N(C)c5ccc(Cl)nc5)cn34)cn2)o1 [Compound 367, N-(6-chloropyridin-3-yl)-N-methyl-3-[6-(5-methyl-1,3,4-oxadiazol-2-yl)pyridin-3-yl]imidazo[1,2-a]pyrazine-6-carboxamide] | > 9280 nM
21 | CN(C)Cc1ccc(-c2cnc3cnc(C(=O)N(C)c4ccc(Cl)nc4)cn23)cc1 [Compound 388, N-(6-chloropyridin-3-yl)-3-{4-[(dimethylamino)methyl]phenyl}-N-methylimidazo[1,2-a]pyrazine-6-carboxamide] | 762 nM
22 | CN(C(=O)c1cn2c(-c3ccc(C(F)(F)F)cc3)cnc2cn1)c1cnc(Cl)s1 [Compound 496, N-(2-chloro-1,3-thiazol-5-yl)-N-methyl-3-[4 (trifluoromethyl)phenyl]imidazo[1,2-a]pyrazine-6-carboxamide] | 2840 nM
23 | FC(F)(F)c1ccc(-c2cnc3cnc(CN4CCOCC4)cn23)cc1 [Compound 392, 4-({3-[4-(trifluoromethyl)phenyl]imidazo[1,2-a]pyrazin-6-yl}methyl)morpholine] | 3250 nM
24 | CN(C(=O)c1cn2c(-c3cccc(F)n3)cnc2cn1)c1ccc(C#N)cc1 [Compound 351, N-(4-cyanophenyl)-3-(6-fluoropyridin-2-yl)-N-methylimidazo[1,2-a]pyrazine-6-carboxamide] | 5620 nM
25 | Cc1n[nH]c2ccc(-c3cnc4cnc(C(=O)N(C)c5ccc(Cl)nc5)cn34)cc12 [Compound 320, N-(6-chloropyridin-3-yl)-N-methyl-3-(3-methyl-1H-indazol-5-yl)imidazo[1,2-a]pyrazine-6-carboxamide] | 2210 nM
26 | CN(C(=O)c1cn2c(-c3ccc(-c4ccco4)cc3)cnc2cn1)c1ccc(C#N)cc1 [Compound 125, N-(4-cyanophenyl)-3-[4-(furan-2-yl)phenyl]-N-methylimidazo[1,2-a]pyrazine-6-carboxamide] | 369 nM
27 | Cc1nnc(-c2ccc(-c3cnc4cnc(C(=O)N(C)c5ccc(C#N)cc5)cn34)cc2)o1 [Compound 163, N-(4-cyanophenyl)-N-methyl-3-[4-(5-methyl-1,3,4-oxadiazol-2-yl)phenyl]imidazo[1,2-a]pyrazine-6-carboxamide] | 2630 nM
28 | CN(C(=O)c1cn2c(-c3ccc(C(F)(F)F)cc3)cnc2cn1)c1ccc(S(C)(=O)=O)cn1 [Compound 317, N-(5-methanesulfonylpyridin-2-yl)-N-methyl-3-[4-(trifluoromethyl)phenyl]imidazo[1,2-a]pyrazine-6-carboxamide] | 1900 nM
29 | COc1ccc(-c2cnc3cnc(C(=O)N(C)c4ccc(C#N)cc4)cn23)cc1C [Compound 30, N-(4-cyanophenyl)-3-(4-methoxy-3-methylphenyl)-N-methylimidazo[1,2-a]pyrazine-6-carboxamide] | 2510 nM
30 | Cc1ccc(-c2cnc3cnc(C(=O)N(C)c4ccc(F)cc4)cn23)cc1 [Compound 108, N-(4-fluorophenyl)-N-methyl-3-(4-methylphenyl)imidazo[1,2-a]pyrazine-6-carboxamide] | 110 nM
31 | CN(C(=O)c1cn2c(-c3ccc(C#N)cc3)cnc2cn1)c1ccc(C#N)cc1 [Compound 377, N,3-bis(4-cyanophenyl)-N-methylimidazo[1,2-a]pyrazine-6-carboxamide] | 8190 nM
32 | CN(C(=O)c1cn2c(-c3ccc(C4NC(=O)NC4=O)cc3)cnc2cn1)c1ccc(C#N)cc1 (stereo not shown) [Compound 165, N-(4-cyanophenyl)-3-[4-(2,5-dioxoimidazolidin-4-yl)phenyl]-N-methylimidazo[1,2-a]pyrazine-6-carboxamide] | 4610 nM
33 | CN(C(=O)c1cn2c(-c3cnc(N4CCCC4=O)cn3)cnc2cn1)c1ccc(C#N)cc1 [Compound 211, N-(4-cyanophenyl)-N-methyl-3-[5-(2-oxopyrrolidin-1-yl)pyrazin-2-yl]imidazo[1,2-a]pyrazine-6-carboxamide] | 9390 nM
34 | Cc1ccc(C(=O)N(C)c2cn3c(-c4ccc(C(F)(F)F)cc4)cnc3cn2)cc1 [Compound 289, N,4-dimethyl-N-{3-[4-(trifluoromethyl)phenyl]imidazo[1,2-a]pyrazin-6-yl}benzamide] | 1500 nM
35 | CN(C(=O)c1cn2c(-c3ccc(C(F)(F)F)cc3)cnc2cn1)c1ccc(Cl)nc1 [Compound 78, N-(6-chloropyridin-3-yl)-N-methyl-3-[4-(trifluoromethyl)phenyl]imidazo[1,2-a]pyrazine-6-carboxamide] | 181 nM
36 | CN(C(=O)c1cn2c(-c3cnc(N)nc3)cnc2cn1)c1ccc(C#N)cc1 [Compound 380, 3-(2-aminopyrimidin-5-yl)-N-(4-cyanophenyl)-N-methylimidazo[1,2-a]pyrazine-6-carboxamide] | 4500 nM
37 | CC(=O)c1ccc(-c2cnc3cnc(C(=O)N(C)c4ccc(C#N)cc4)cn23)cc1 [Compound 134, 3-(4-acetylphenyl)-N-(4-cyanophenyl)-N-methylimidazo[1,2-a]pyrazine-6-carboxamide] | 490 nM
